Test results taken from patent US20040034879A1, “Mammalian sex selection using genetic modification” (priority 2000, published 2004).

How the values were obtained:
Human 293 cells = test: Luciferase activity after transient co-transfection with pCMV-Luc; assay type: cell-based; conditions: 48 hours after co-transfection with pBS-CMV-tTA-Barnase-Barstar and pCMV-Luc; tetracycline pretreatment, 2 μg/ml
Description: Cell culture and transient transfection: Human 293 cells from embryonal kidney were maintained at 37° C., 5% CO2 in α-MEM supplemented with 10% fetal bovine serum. Transfections by calcium phosphate co-precipitation were performed according to standard protocols. Transfections were carried out in 35 mm dishes, using 1 μg of plasmid together with 0.5 μg of pCMV-Luc or pCMV-GFP. Control trasfections contained 1 μg of empty pTRE plasmid DNA together with 0.5 μg of either pCMV-Luc or pCMV-GFP. Tetracycline was used at a concentration of 2 μg/ml, and added shortly after cells were transfected, unless otherwise indicated. All data were from three replicate plates and the experiments were repeated twice.
Luciferase activity: Twenty-four hours following transfection, media was removed, cells were washed with PBS and luciferase assays were performed as described in Yin et al (1996) with Promega luciferase assay system, using 10 μl lysate and 50 μl luciferase substrate. Activity was measured with a Turner TD-20e luminometer. Protein concentrations in different lysates were determined by Bradford assays (Bio-Rad), and luciferase activity per μg protein determined.

[1] = system: sperm comprising an X chromosome; test: Sex of offspring sired by male mice carrying TP1-HSV tk (transgene (a)) on the X chromosome; assay type: in vivo, mouse; conditions: after two weeks of gancyclovir administration, crossed with non-transgenic female mice
Description: The mice transformed with transgene (a), as described above, express HSV tk on the X chromosome of maturing sperm. Gancyclovir. from about 5 to about 15 mg/kg body weight, is administered to transgenic mice expressing HSV tk via injection. Upon gancyclovir administration, HSV tk forms toxic metabolites that leads to the ablation of sperm comprising an X chromosome. The TP1 regulatory region is activated post-meiotically, so that Y bearing sperm are not effected. Thus, the transformed male mouse comprises exclusively Y bearing sperm and produces male offspring, upon gancyclovir administration. An exemplary gancyclovir administration regime comprises two weeks of administration prior to mating, thereby destroying X chromosome-bearing sperm prior to mating. Male mice carrying transgene HSV tk (transgene (a)) are crossed non-transgenic female mice. Without gancyclovir administration, half of the offspring are male and half are female. The female offspring carry the transgene on the X chromosome. After two weeks of gancyclovir administration, male mice carrying transgene (a) are crossed with non-transgenic female mice. The resulting offspring are all male.

Row | SMILES | luciferase activity in cells treated with tetracycline versus those not treated (Human 293 cells) | sex of the resulting offspring [1]
1 | CN(C)[C@@H]1C(O)=C(C(N)=O)C(=O)[C@@]2(O)C(O)=C3C(=O)c4c(O)cccc4[C@@](C)(O)[C@H]3C[C@@H]12 [tetracycline] | ~6 fold | 
2 | Nc1nc(O)c2ncn(COC(CO)CO)c2n1 [gancyclovir] |  | all male
